Source: patent publication US8242118B2, “Arylsulfonamide derivatives for use as CCR3 antagonists in the treatment of inflammatory and immunological disorders” (Axikin Pharmaceuticals Inc., priority 2001, dated 2012)
Where a name gives a salt, the structure may show the parent alone.

Row | SMILES | melting point
1 | Cc1cc(C)cc(Oc2ccc([N+](=O)[O-])cc2S(=O)(=O)N2CCNCC2)c1 (as salt: hydrochloride) [Example 1-2, 1-{[2-(3,5-dimethylphenoxy)-5-nitrophenyl]sulfonyl}piperazine hydrochloride] | 264 to 266 °C
2 | Cc1cc(C)cc(Sc2ccc([N+](=O)[O-])cc2S(=O)(=O)N2CCNCC2)c1 (as salt: hydrochloride) [Example 2-1, 1-({2-[(3,5-dimethylphenyl)-sulfanyl]-5-nitrophenyl}sulfonyl)piperazine hydrochloride] | 225 to 227 °C
3 | Cc1cc(C)cc(Nc2ccc([N+](=O)[O-])cc2S(=O)(=O)N2CCNCC2)c1 (as salt: hydrochloride) [Example 3-1, N-(3,5-dimethyl-phenyl)-4-nitro-2-(1-piperazinylsulfonyl)aniline dihydrochloride] | 175 to 179 °C
4 | Cc1cc(C)cc(Oc2ccc(Cl)cc2S(=O)(=O)N2CCNCC2)c1 (as salt: hydrochloride) [Example 5-2, 1-{[5-chloro-2-(3,5-dimethylphenoxy)phenyl]sulfonyl}piperazine hydrochloride] | 202 to 204 °C
5 | COc1ccc(Oc2cc(C)cc(C)c2)c(S(=O)(=O)N2CCNCC2)c1 (as salt: hydrochloride) [Example 6-2] | 175 to 177 °C
6 | CN(C)C(=O)c1ccc(Oc2cc(Cl)cc(Cl)c2)c(S(=O)(=O)N2CCNCC2)c1 (as salt: hydrochloride) [Example 10-1, 4-(3,5-dichlorophenoxy)-N,N-dimethyl-3-(1-piperazinylsulfonyl)benzamide hydrochloride] | 197 to 199 °C
7 | N#Cc1ccc(Oc2cc(Cl)cc(Cl)c2)c(S(=O)(=O)N2CCCNCC2)c1 (as salt: hydrochloride) [Example 12-1, 3-(1,4-diazepan-1-ylsulfonyl)-4-(3,5-dichlorophenoxy)benzonitrile hydrochloride] | 278 to 280 °C
8 | N#Cc1ccc(Oc2cc(Cl)cc(Cl)c2)c(S(=O)(=O)N2CC[C@H](N)C2)c1 (as salt: hydrochloride) [Example 13-1, 1-{5-cyano-2-(3,5-dichlorophenoxy)phenylsulfonyl}-(3S)-aminopyrrolidine hydrochloride] | 276 °C
9 | Cc1cc(C)cc(Oc2ccc([N+](=O)[O-])cc2S(=O)(=O)N2CCNCC2)c1.O=C(O)C(F)(F)F [Example 1-3] | 120 to 125 °C
10 | O=[N+]([O-])c1ccc(Oc2cc(Cl)cc(Cl)c2)c(S(=O)(=O)N2CCC(N3CCCC3)CC2)c1 [Example 4-1, 1-{[2-(3,5-dichlorophenoxy)-5-nitrophenyl]sulfonyl}-4-(1-pyrrolidinyl)piperidine] | 217 to 218 °C
11 | N#Cc1ccc(Oc2cc(Cl)cc(Cl)c2)c(S(=O)(=O)N2CCNCC2)c1 [Example 6-4] | 179 to 181 °C
12 | N#Cc1ccc(Oc2cc(Cl)cc(Cl)c2)c(S(=O)(=O)N2CCC(N3CCCC3)CC2)c1 [Example 6-5] | 186 to 187 °C

Results, then the compound that gave them:

Row | melting point | SMILES
13 | 120 °C | COC(=O)c1ccc(Oc2cc(C)cc(C)c2)c(S(=O)(=O)N2CCNCC2)c1 (as salt: hydrochloride) [Example 15-2, methyl 4-(3,5-dimethylphenoxy)-3-(1-piperazinylsulfonyl)benzoate hydrochloride]
14 | 160 °C | Cc1cc(C)cc(Oc2ccc(CO)cc2S(=O)(=O)N2CCNCC2)c1 (as salt: hydrochloride) [Example 16-1, [4-(3,5-dimethylphenoxy)-3-(1-piperazinylsulfonyl)phenyl]methanol hydrochloride]
15 | 82 °C | N#Cc1ccc(Sc2cc(Cl)cc(Cl)c2)c(S(=O)(=O)N2CCNCC2)c1 (as salt: hydrochloride) [Example 17-1, 4-[(3,5-dichlorophenyl)sulfanyl]-3-(1-piperazinylsulfonyl)benzonitrile hydrochloride]
16 | 258 °C | N#Cc1ccc(S(=O)(=O)c2cc(Cl)cc(Cl)c2)c(S(=O)(=O)N2CCNCC2)c1 (as salt: hydrochloride) [Example 18-1, 4-[(3,5-dichlorophenyl)sulfonyl]-3-(1-piperazinylsulfonyl)benzonitrile hydrochloride]
17 | 219 °C | N#Cc1ccc([S+]([O-])c2cc(Cl)cc(Cl)c2)c(S(=O)(=O)N2CCNCC2)c1 (stereo not shown) (as salt: hydrochloride) [Example 19-1, 4-[(3,5-dichlorophenyl)sulfinyl]-3-(1-piperazinylsulfonyl)benzonitrile hydrochloride]
18 | 163 °C | CN(c1cc(Cl)cc(Cl)c1)c1ccc(C#N)cc1S(=O)(=O)N1CCNCC1 (as salt: hydrochloride) [Example 21-1, 4-[(3,5-dichlorophenyl)(methyl)amino]-3-(1-piperazinylsulfonyl)benzonitrile hydrochloride]
19 | 101 °C | Cc1cc(C)cc(Oc2ccc(C(=O)NCCC#N)cc2S(=O)(=O)N2CCNCC2)c1 (as salt: hydrochloride) [Example 22-1, N-(2-cyanoethyl)-4-(3,5-dimethylphenoxy)-3-(1-piperazinylsulfonyl)benzamide hydrochloride]
20 | 121 °C | Cc1cc(C)cc(Oc2ccc(C(=O)NCCC(N)=O)cc2S(=O)(=O)N2CCNCC2)c1 (as salt: hydrochloride) [Example 22-2, N-[4-(3,5-dimethylphenoxy)-3-(1-piperazinylsulfonyl)benzoyl]-beta-alanineamide hydrochloride]
21 | 125 °C | Cc1cc(C)cc(Oc2ccc(-c3nnnn3CCC#N)cc2S(=O)(=O)N2CCNCC2)c1 (as salt: hydrochloride) [Example 22-3, 3-{5-[4-(3,5-dimethylphenoxy)-3-(1-piperazinylsulfonyl)phenyl]-1H-tetraazol-1-yl}propanenitrile hydrochloride]
22 | 213 °C | Cc1cc(C)cc(Oc2ccc(-c3nnn[nH]3)cc2S(=O)(=O)N2CCNCC2)c1 (as salt: hydrochloride) [Example 22-4, 1-{[2-(3,5-dimethylphenoxy)-5-(1H-tetraazol-5-yl)phenyl]sulfonyl}piperazine hydrochloride]
23 | 284 °C | Cc1cc(C)cc(Oc2cc([N+](=O)[O-])ccc2S(=O)(=O)N2CCNCC2)c1 (as salt: hydrochloride) [Example 23-1, 1-{2-(3,5-dimethylphenoxy)-4-nitrophenylsulfonyl}piperazine hydrochloride]
24 | > 84 °C (dec.) | Cc1cc(C)cc(Oc2cc(Br)cc(S(=O)(=O)N3CCNCC3)c2)c1 (as salt: hydrochloride) [Example 24-1, 1-{[3-bromo-5-(3,5-dimethylphenoxy)phenyl]sulfonyl}piperazine hydrochloride]
25 | 220 °C | Cc1cc(C)cc(Oc2ccncc2S(=O)(=O)N2CCNCC2)c1 (as salt: hydrochloride) [Example 25-1, 1-{[4-(3,5-dimethylphenoxy)-3-pyridinyl]sulfonyl}piperazine hydrochloride]
26 | 164 to 165 °C | N#Cc1ccc(Oc2cc(Cl)cc(Cl)c2)c(S(=O)(=O)N2C[C@H]3CCCN[C@H]3C2)c1 [Example 13-6]
27 | 262 °C | N#Cc1ccc(Oc2cc(Cl)cc(Cl)c2)c(S(=O)(=O)N2CCNCC2C(=O)O)c1 (stereo not shown) [Example 13-9]
28 | 277 to 278 °C | Cl.N#Cc1ccc(Sc2cc(Cl)cc(Cl)c2)c(S(=O)(=O)N2CCCNCC2)c1 [Example 17-3]
